Data taken from the supplement of paper PMC8882468.

Experiments:
Assay in all cases: CTG-3D luminescence at 96 h relative to day-0 seeding control (ratio to day 0); higher = more growth / less cytotoxicity; PDxO 3D drug screen, 96 h, CTG-3D normalised to day-0 seeding control.
[1] = system: HCI-005.E2 (organoid from a breast cancer xenograft with a HER2-positive history)
[2] = system: HCI-008 (organoid from a HER2-enriched breast cancer xenograft)
[3] = system: HCI-010 (organoid from a breast cancer xenograft)
[4] = system: HCI-011.E2 (organoid from an ER-positive breast cancer xenograft)
[5] = system: HCI-012 (organoid from a breast cancer xenograft)
[6] = system: HCI-015 (organoid from a triple-negative breast cancer xenograft)
[7] = system: HCI-019 (organoid from a triple-negative breast cancer xenograft)

CC1(C)CCC(c2ccc(Cl)cc2)=C(CN2CCN(c3ccc(C(=O)NS(=O)(=O)c4ccc(N[C@H](CCN5CCOCC5)CSc5ccccc5)c(S(=O)(=O)C(F)(F)F)c4)cc3)CC2)C1 [navitoclax]
CTG-3D luminescence at 96 h
Details | 12.5 pM | 0.00025 µM | 0.005 µM | 0.1 µM | 1 µM | 10 µM | 100 µM | 625 fM
[1] | 1.5 | 1.46 | 1.66 | 1.7 | 1.24 | 1.21 | 0.0085 | 1.6
[4] | 1.62 | 1.82 | 1.33 | 1.72 | 1.52 | 1.84 | 0.144 | 1.8

CTG-3D luminescence at 96 h
Details | 12.5 pM | 0.00025 µM | 0.005 µM | 0.1 µM | 1 µM | 10 µM | 100 µM | 625 fM
[2], days in culture: 228 | 1.53 | 1.62 | 1.55 | 1.61 | 1.2 | 0.854 | 0.0594 | 1.77
[2], days in culture: 244 | 1.31 | 1.99 | 1.94 | 2.06 | 1.57 | 0.824 | 0.0293 | 2.52
[3], days in culture: 52 | 2.01 | 2.27 | 2.15 | 0.695 | 0.0507 | 0.0304 | 0.0084 | 2.13
[3], days in culture: 65 | 1.61 | 1.66 | 1.65 | 0.573 | 0.026 | 0.0135 | 0.00305 | 1.8
[3], days in culture: 103 | 3.2 | 3.28 | 3.13 | 1.08 | 0.0477 | 0.0368 | 0.0191 | 2.7
[4], days in culture: 74 | 2.04 | 2.51 | 2.16 | 2.38 | 2.09 | 2.86 | 0.137 | 1.84
[5], days in culture: 143 | 1.69 | 2.26 | 2.2 | 2.7 | 2.07 | 2.21 | 0.239 | 1.81
[5], days in culture: 162 | 2.02 | 2.3 | 2.33 | 2.56 | 2.17 | 2.21 | 0.134 | 2.94
[5], days in culture: 201 | 3.09 | 2.12 | 1.75 | 1.93 | 2.2 | 0.271 | -0.19 | 1.96
[6], days in culture: 172 | 2.17 | 2.01 | 2.2 | 1.82 | 1.99 | 1.61 | 0.429 | 2.6
[6], days in culture: 191 | 2.56 | 1.7 | 2 | 1.59 | 1.87 | 1.01 | 0.399 | 1.61
[6], days in culture: 218 | 1.72 | 1.53 | 1.74 | 1.59 | 1.64 | 1.63 | -0.117 | 1.97
[7], days in culture: 110 | 1.8 | 1.8 | 1.56 | 1.84 | 0.469 | 0.538 | 0.0111 | 2.31
[7], days in culture: 131 | 2.39 | 3.6 | 3.23 | 2.91 | 1.25 | 0.358 | 0.0147 | 3.96
[7], days in culture: 152 | 2.86 | 2.49 | 3.21 | 1.89 | 0.769 | 0.582 | 0.00119 | 2.39

CC[C@H](NC(=O)[C@H](C)NC)C(=O)N1C[C@@H](O)C[C@H]1Cc1c(-c2[nH]c3cc(F)ccc3c2C[C@@H]2C[C@H](O)CN2C(=O)[C@H](CC)NC(=O)[C@H](C)NC)[nH]c2cc(F)ccc12 [birinapant]
CTG-3D luminescence at 96 h
Details | 12.5 pM | 0.00025 µM | 0.005 µM | 0.1 µM | 1 µM | 10 µM | 100 µM | 625 fM
[1] | 1.74 | 1.66 | 1.74 | 1.77 | 1.79 | 1.51 | 1.29 | 1.76
[4] | 1.4 | 1.53 | 1.16 | 1.61 | 1.34 | 1.59 | 0.956 | 1.72

CTG-3D luminescence at 96 h
Details | 12.5 pM | 0.00025 µM | 0.005 µM | 0.1 µM | 1 µM | 10 µM | 100 µM | 625 fM
[2], days in culture: 228 | 1.3 | 1.73 | 0.611 | 0.11 | 0.147 | 0.206 | 0.162 | 1.43
[2], days in culture: 244 | 1.27 | 1.82 | 1.05 | 0.549 | 0.521 | 0.713 | 0.51 | 2.04
[3], days in culture: 52 | 2.04 | 2.47 | 2.12 | 2.26 | 1.6 | 1.52 | 1.05 | 2.18
[3], days in culture: 65 | 1.7 | 1.59 | 1.72 | 1.47 | 1.43 | 1.23 | 0.618 | 1.66
[3], days in culture: 103 | 3.3 | 3.66 | 3.43 | 2.74 | 2.62 | 2.1 | 0.973 | 2.9
[4], days in culture: 74 | 2.25 | 2.3 | 1.91 | 1.82 | 1.85 | 1.48 | 1.22 | 2.46
[5], days in culture: 143 | 1.9 | 1.6 | 0.979 | 1.05 | 0.841 | 1.03 | 0.0063 | 1.91
[5], days in culture: 162 | 2.25 | 2.01 | 0.325 | 0.156 | 0.152 | 0.249 | 0.00568 | 2.83
[5], days in culture: 201 | 2.65 | 2.24 | 1.46 | 0.262 | 0.102 | 0.277 | 0.0538 | 1.77
[6], days in culture: 172 | 2.01 | 1.64 | 0.598 | 0.172 | 0.485 | 0.234 | 0.0277 | 1.3
[6], days in culture: 191 | 0.803 | 0.19 | 0.16 | 0.126 | 0.32 | 0.224 | 0.0253 | 0.41
[6], days in culture: 218 | 1.68 | 0.775 | 0.248 | 0.111 | 0.125 | 0.185 | 0.0267 | 1.8
[7], days in culture: 110 | 1.9 | 2.21 | 1.18 | 0.993 | 0.634 | 1.01 | 0.351 | 1.87
[7], days in culture: 131 | 2.64 | 3.89 | 2.09 | 3.03 | 1.34 | 2.65 | 0.638 | 3.16
[7], days in culture: 152 | 2.72 | 2 | 2.1 | 1.49 | 0.853 | 1.05 | 0.336 | 1.84

NC(=O)Nc1cc(-c2cccc(F)c2)sc1C(=O)N[C@H]1CCCNC1 [AZD7762]
CTG-3D luminescence at 96 h
Details | 12.5 pM | 0.00025 µM | 0.005 µM | 0.1 µM | 1 µM | 10 µM | 100 µM | 625 fM
[1] | 1.82 | 1.75 | 1.8 | 1.6 | 0.674 | 0.164 | 0.00356 | 1.95
[4] | 1.57 | 1.86 | 1.56 | 1.77 | 1.66 | 1.32 | 0.00993 | 1.71

CTG-3D luminescence at 96 h
Details | 12.5 pM | 0.00025 µM | 0.005 µM | 0.1 µM | 1 µM | 10 µM | 100 µM | 625 fM
[2], days in culture: 228 | 1.63 | 1.9 | 1.65 | 1.14 | 0.449 | 0.196 | -0.128 | 1.86
[2], days in culture: 244 | 1.39 | 1.87 | 2.45 | 1.66 | 0.881 | 0.413 | 0.00425 | 2.38
[3], days in culture: 52 | 2.15 | 2.42 | 2.03 | 0.844 | 0.355 | 0.327 | -0.0157 | 2.28
[3], days in culture: 65 | 1.69 | 1.62 | 1.42 | 0.742 | 0.378 | 0.219 | 0.00203 | 1.65
[3], days in culture: 103 | 3.16 | 3.35 | 3.16 | 1.23 | 0.651 | 0.537 | 0.0021 | 3.22
[4], days in culture: 74 | 2.04 | 2.16 | 1.88 | 1.68 | 1.62 | 1.33 | 0.00724 | 1.92
[5], days in culture: 143 | 2.11 | 2.03 | 2.04 | 2.67 | 1.75 | 0.0896 | 0.000673 | 1.69
[5], days in culture: 162 | 2.58 | 2.41 | 1.89 | 2.83 | 1.99 | 0.16 | -5.12e-05 | 3.15
[5], days in culture: 201 | 2.51 | 2.18 | 1.69 | 1.39 | 2.14 | 0.141 | 0.00358 | 1.9
[6], days in culture: 172 | 2.49 | 1.87 | 2.19 | 0.668 | 0.336 | 0.117 | 0.000941 | 2.32
[6], days in culture: 191 | 1.83 | 1.42 | 1.11 | 0.566 | 0.248 | 0.12 | -0.000313 | 1.28
[6], days in culture: 218 | 1.16 | 1.65 | 1.65 | 0.692 | 0.211 | 0.102 | -0.000297 | 1.59
[7], days in culture: 110 | 2.48 | 1.62 | 1.33 | 1.06 | 0.333 | 0.13 | -0.000246 | 2.15
[7], days in culture: 131 | 2.56 | 4.24 | 2.81 | 2.99 | 0.541 | 0.193 | 0.00562 | 4.04
[7], days in culture: 152 | 1.82 | 2.74 | 2.11 | 1.11 | 0.437 | 0.149 | 0.00479 | 3.06

C=CC(=O)N1CCC[C@@H](n2nc(-c3ccc(Oc4ccccc4)cc3)c3c(N)ncnc32)C1 [ibrutinib]
CTG-3D luminescence at 96 h
Details | 12.5 pM | 0.00025 µM | 0.005 µM | 0.1 µM | 1 µM | 10 µM | 100 µM | 625 fM
[1] | 1.47 | 2 | 1.22 | 1.93 | 1.38 | 0.629 | -0.00377 | 1.61
[4] | 1.7 | 1.71 | 1.45 | 2 | 2.1 | 2.03 | 0.00409 | 1.84

CTG-3D luminescence at 96 h
Details | 12.5 pM | 0.00025 µM | 0.005 µM | 0.1 µM | 1 µM | 10 µM | 100 µM | 625 fM
[2], days in culture: 228 | 1.59 | 1.84 | 1.21 | 1.18 | 1.26 | 1 | -0.0059 | 1.66
[2], days in culture: 244 | 1.25 | 1.71 | 1.76 | 1.65 | 1.52 | 1.3 | -0.0038 | 1.98
[3], days in culture: 52 | 2.16 | 2.15 | 2.34 | 2.35 | 2.08 | 1.47 | -0.00732 | 2.5
[3], days in culture: 65 | 1.67 | 1.66 | 1.79 | 1.73 | 1.79 | 0.888 | -0.00863 | 1.69
[3], days in culture: 103 | 3.5 | 3.57 | 3.54 | 3.41 | 3.26 | 1.51 | -0.0156 | 3.23
[4], days in culture: 74 | 2.44 | 2.67 | 1.96 | 2.48 | 2.83 | 2.44 | 0.00445 | 2.75
[5], days in culture: 143 | 1.95 | 2 | 1.95 | 2.2 | 1.64 | 1.12 | -0.0164 | 1.75
[5], days in culture: 162 | 2.49 | 1.94 | 2.13 | 2.98 | 1.72 | 1.53 | -0.0115 | 2.67
[5], days in culture: 201 | 2.76 | 1.92 | 1.72 | 1.69 | 2.52 | 0.842 | -0.018 | 1.54
[6], days in culture: 172 | 2.54 | 1.92 | 2.32 | 1.06 | 1.37 | 1.14 | 7.09e-05 | 2.36
[6], days in culture: 191 | 1.91 | 1.22 | 1.64 | 1.03 | 0.827 | 0.68 | 0.00148 | 1.52
[6], days in culture: 218 | 1.88 | 1.37 | 1.76 | 1.6 | 1.4 | 1.33 | 0.00244 | 1.81
[7], days in culture: 110 | 1.83 | 0.982 | 1.32 | 2.18 | 1.21 | 1.26 | -0.00836 | 2.04
[7], days in culture: 131 | 2.58 | 3.79 | 2.31 | 2.19 | 1.24 | 2.27 | -0.0163 | 2.86
[7], days in culture: 152 | 3.76 | 3.16 | 2.83 | 2.13 | 1.54 | 1.75 | -0.00421 | 2.48
